Reference: patent US20060160070A1, “Association-based epitome design” (Microsoft Corporation, priority 2004, published 2006)

Tests used:
HLA A*0101 [1] = target: T1, HLA A*0101 (Homo sapiens, UniProt P04439, A114D/A174V/A182V/D101N/D185E/E176A/E190D/L180R/Q94H/R68K/S129P/T187R/V100A/V91M/W191G); experiment: ITOPIA peptide binding assay; settings: 1.11×10^−4M of peptide
T1 construct: purchased
Description: (§1) Peptide binding, off-rate and affinity were measured according to the protocols described in the ITOPIA Epitope Discovery System Customer Guide. To conduct the experiments, ninety-six (96) micro-titer plates coated with MHC molecules representing the HLA alleles listed in Table 9 were used to identify candidate peptides. Determinations were performed in duplicate using an ELISA plate reader. The peptide binding assay used measures the ability of individual peptides to bind to the HLA molecules under standardized optimal binding conditions. The assay was performed for all the test peptides across the selected HLA alleles. The test peptides identified as “binders” were characterized further in terms of affinity and dissociation experiments. The off-rate assay used evaluates the dissociation of previously bound peptide at defined time points (expressed as the t1/2 value). The affinity assay used measures the relative binding affinities for the MHC molecules determined by incubating candidate peptides identified in the initial peptide binding assay at increasing concentrations (expressed as quantity of peptide needed to achieve 50% binding or ED50 value).
(§2) The binding of the test peptides (Table 8) to the HLA molecules (Table 9) was performed at a concentration of 1.11×10^−4M of peptide under optimal, standardized test conditions. A control peptide was run in parallel on the same plate and at the same concentration as the test peptides. […] The level of binding is expressed as a percent of positive control peptide binding for each allele.

HLA A*0201 [2] = target: T2, HLA A*0201 (Homo sapiens, UniProt P04439, D140Y/D185E/D98H/E176V/E277Q/G131W/G231S/I119V/I121R/I166T/I218V/L300P/L318F/N151K/N90K/P208A/P217A/Q86G/Q94H/R138H/R169H/T345S); experiment: ITOPIA peptide binding assay; settings: 1.11×10^−4M of peptide
Description: as §1, §2

HLA A*0301 [3] = target: T3, HLA A*0301 (Homo sapiens, UniProt P04439); experiment: ITOPIA peptide binding assay; settings: 1.11×10^−4M of peptide
T3 construct: purchased
Description: as §1, §2

HLA A*1101 [4] = target: T4, HLA A*1101 (Homo sapiens, UniProt P04439, A114D/D185E/E176A/F33Y/L180Q/S129P/T187R); experiment: ITOPIA peptide binding assay; settings: 1.11×10^−4M of peptide
T4 construct: purchased
Description: as §1, §2

HLA A*2402 [5] = target: T5, HLA A*2402 (Homo sapiens, UniProt P04439, D101N/D140Y/D185E/E176V/E190D/F33S/G103R/G107R/I119L/I121M/I306V/K335N/L105A/L180Q/L300P/N151K/N90K/Q86E/Q94H/R106L/R138H/R89G/T104I/T345S/V100E/W191G/Y123F); experiment: ITOPIA peptide binding assay; settings: 1.11×10^−4M of peptide
Description: as §1, §2

HLA B*0702 [6] = target: T6, HLA B*0702 (Homo sapiens, UniProt P01889); experiment: ITOPIA peptide binding assay; settings: 1.11×10^−4M of peptide
T6 construct: purchased
Description: as §1, §2

HLA B*0801 [7] = target: T7, HLA B*0801 (Homo sapiens, UniProt P01889, A93T/A95T/D138N/E176V/E187T/K202T/Q94N/R180D/S35A/V36M/Y33D/Y91F); experiment: ITOPIA peptide binding assay; settings: 1.11×10^−4M of peptide
T7 construct: purchased
Description: as §1, §2

HLA B*1501 [8] = target: T8, HLA B*1501 (Homo sapiens, UniProt P01889, A329T/A93T/A95T/C349S/D201E/D98Y/E187L/E204Q/E69M/E70A/K202T/N87E/Q94N/R155S/R180W/S121R/S35A/S48A/V306I/V36M/Y140S/Y91S); experiment: ITOPIA peptide binding assay; settings: 1.11×10^−4M of peptide
T8 construct: purchased
Description: as §1, §2

HLA A*0101 [9] = target: T1, HLA A*0101; experiment: Multi-parametric analysis iScore; assay type: binding; parameters: scale not given here; settings: index integrating t1/2 and ED50
Description: (§3) Multi-parametric analysis was performed to integrate the half-life (t½) and ED50 parameters in an index (iScore). The iScore (Table 13) reflects the capability of a peptide to reconstitute with MHC molecules in a stable complex, defining its overall level of binding.

HLA A*0201 [10] = target: T2, HLA A*0201; experiment: Multi-parametric analysis iScore; assay type: binding; parameters: scale not given here; settings: index integrating t1/2 and ED50
Description: as §3

HLA A*0301 [11] = target: T3, HLA A*0301; experiment: Multi-parametric analysis iScore; assay type: binding; parameters: scale not given here; settings: index integrating t1/2 and ED50
Description: as §3

HLA A*1101 [12] = target: T4, HLA A*1101; experiment: Multi-parametric analysis iScore; assay type: binding; parameters: scale not given here; settings: index integrating t1/2 and ED50
Description: as §3

HLA A*2402 [13] = target: T5, HLA A*2402; experiment: Multi-parametric analysis iScore; assay type: binding; parameters: scale not given here; settings: index integrating t1/2 and ED50
Description: as §3

HLA B*0702 [14] = target: T6, HLA B*0702; experiment: Multi-parametric analysis iScore; assay type: binding; parameters: scale not given here; settings: index integrating t1/2 and ED50
Description: as §3

HLA B*0801 [15] = target: T7, HLA B*0801; experiment: Multi-parametric analysis iScore; assay type: binding; parameters: scale not given here; settings: index integrating t1/2 and ED50
Description: as §3

HLA B*1501 [16] = target: T8, HLA B*1501; experiment: Multi-parametric analysis iScore; assay type: binding; parameters: scale not given here; settings: index integrating t1/2 and ED50
Description: as §3

HLA A*0201 [17] = target: T2, HLA A*0201; experiment: ITOPIA off-rate assay; assay type: binding; settings: 37° C., one-phase exponential decay
Description: as §1
The peptides initially identified as binders were evaluated for stability based on their ability to remain bound to MHC molecules at 37° C. at time points 0, 0.5, 1, 1.5, 2, 4, 6 and 8 hours. […] The values obtained for each time point (in duplicate) are expressed (Table 11) as a percentage of the positive control. To calculate the t1/2 and goodness-of-fit, as measured by r^2, for each peptide, a one-phase exponential decay curve, with a plateau given equal to 0, was generated using […] PRISM software.

| Substance | level of binding, percent of positive control peptide binding (HLA A*0101 [1]) | level of binding, percent of positive control peptide binding (HLA A*0201 [2]) | level of binding, percent of positive control peptide binding (HLA A*0301 [3]) | level of binding, percent of positive control peptide binding (HLA A*1101 [4]) | level of binding, percent of positive control peptide binding (HLA A*2402 [5]) | level of binding, percent of positive control peptide binding (HLA B*0702 [6]) | level of binding, percent of positive control peptide binding (HLA B*0801 [7]) | level of binding, percent of positive control peptide binding (HLA B*1501 [8]) | iScore (HLA A*0101 [9]) | iScore (HLA A*0201 [10]) | iScore (HLA A*0301 [11]) | iScore (HLA A*1101 [12]) | iScore (HLA A*2402 [13]) | iScore (HLA B*0702 [14]) | iScore (HLA B*0801 [15]) | iScore (HLA B*1501 [16]) | A*0201 t1/2 (HLA A*0201 [17]) |
| --- | --- | --- | --- | --- | --- | --- | --- | --- | --- | --- | --- | --- | --- | --- | --- | --- | --- |
| 70 (VPLTEEAEL; HIV) [compound 70] | 1% of positive control | 5% of positive control | 0% of positive control | 1% of positive control | 6% of positive control | 4% of positive control | 4% of positive control | 4% of positive control | 0 | 0 | 0 | 0 | 0 | 0 | 0 | 0 | – |
| 155 (HNEWTLELL; HIV) [compound 155] | 0% of positive control | 5% of positive control | 0% of positive control | 1% of positive control | 13% of positive control | 1% of positive control | 3% of positive control | 0% of positive control | 0 | 0 | 0 | 0 | 0 | 0 | 0 | 0 | – |
| ALFYKLDVV [compound 72] | 4% of positive control | 80% of positive control | 5% of positive control | 1% of positive control | 14% of positive control | 3% of positive control | 3% of positive control | 4% of positive control | 0 | 0.484 | 0 | 0 | 0 | 0 | 0 | 0 | 4.0 h |
| VTLTEEAEL [compound 156] | 1% of positive control | 26% of positive control | 0% of positive control | 1% of positive control | 11% of positive control | 0% of positive control | 4% of positive control | 7% of positive control | 0 | 0.110 | 0 | 0 | 0 | 0 | 0 | 0 | 1.2 h |
